EC50 data for two compounds are collected here from patent US7897629B2, “Therapeutic compounds” (Allergan, Inc., priority 2006, dated 2011).

Assay [1] concerns the target T1, EP2 (Homo sapiens, UniProt P43116). The assay is described as follows: EP2 cAMP functional assay. The format is cell-based.
In assay [2] the target is T1, EP2. The assay is described as follows: EP2 binding assay.
The target of assay [3] is T1, EP2. In words: EP2 Ca2+ signal assay. The class given is cell-based.

Each structure is given as a SMILES string.

T1 sequence (P43116 whole entry): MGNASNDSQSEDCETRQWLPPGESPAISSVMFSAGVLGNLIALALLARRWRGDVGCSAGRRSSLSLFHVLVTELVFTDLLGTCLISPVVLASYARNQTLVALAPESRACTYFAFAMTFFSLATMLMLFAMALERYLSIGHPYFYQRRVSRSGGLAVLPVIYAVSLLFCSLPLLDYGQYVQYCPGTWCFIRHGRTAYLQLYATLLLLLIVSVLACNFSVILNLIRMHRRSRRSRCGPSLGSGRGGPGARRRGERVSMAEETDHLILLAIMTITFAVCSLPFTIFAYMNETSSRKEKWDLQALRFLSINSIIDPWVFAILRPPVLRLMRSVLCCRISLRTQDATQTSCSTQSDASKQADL

`CCCCCC(O)c1ccc(N2C(COCc3ccc(C(=O)O)s3)CCS2(=O)=O)cc1` (stereo not drawn) [Compound 15]: the results for the EC50 at EP2 [1], at EP2 [2] and on EP2 [3] were 0.115 µM, 2.92 µM and 8.32 µM, respectively.
Taken in the same sequence, the figures for `CCCCCC(=O)c1ccc(N2C(COCc3ccc(C(=O)O)s3)CCS2(=O)=O)cc1` (stereo not drawn) [Compound 17] were 0.098 µM, 1.2 µM and 5.42 µM.
